Results on 2 compounds are retold here after patent US20260108503A1, “POLYMERIC MICELLE NANOCARRIERS FOR TARGETED EPIDERMAL DELIVERY OF THE HEDGEHOG PATHWAY INHIBITOR TAK-441” (UNIVERSITÉ DE GENÈ DE GENÈVE, priority 2022, published 2026).

“Also recorded” adds a separate entry of the source.

In general, IC50 refers to the midpoint of a concentration-inhibition curve. As usually defined, the log P is a log measure of how a compound divides between an organic and an aqueous phase.

The conditions of series [1]: human, in vivo; cited from earlier work.
In series [2] the target is vismodegib-resistant SMO mutant D473H (Homo sapiens, UniProt Q99835, D473H). The following applies: cited from earlier work.
Chain of vismodegib-resistant SMO mutant D473H (Q99835 28-787 D473H): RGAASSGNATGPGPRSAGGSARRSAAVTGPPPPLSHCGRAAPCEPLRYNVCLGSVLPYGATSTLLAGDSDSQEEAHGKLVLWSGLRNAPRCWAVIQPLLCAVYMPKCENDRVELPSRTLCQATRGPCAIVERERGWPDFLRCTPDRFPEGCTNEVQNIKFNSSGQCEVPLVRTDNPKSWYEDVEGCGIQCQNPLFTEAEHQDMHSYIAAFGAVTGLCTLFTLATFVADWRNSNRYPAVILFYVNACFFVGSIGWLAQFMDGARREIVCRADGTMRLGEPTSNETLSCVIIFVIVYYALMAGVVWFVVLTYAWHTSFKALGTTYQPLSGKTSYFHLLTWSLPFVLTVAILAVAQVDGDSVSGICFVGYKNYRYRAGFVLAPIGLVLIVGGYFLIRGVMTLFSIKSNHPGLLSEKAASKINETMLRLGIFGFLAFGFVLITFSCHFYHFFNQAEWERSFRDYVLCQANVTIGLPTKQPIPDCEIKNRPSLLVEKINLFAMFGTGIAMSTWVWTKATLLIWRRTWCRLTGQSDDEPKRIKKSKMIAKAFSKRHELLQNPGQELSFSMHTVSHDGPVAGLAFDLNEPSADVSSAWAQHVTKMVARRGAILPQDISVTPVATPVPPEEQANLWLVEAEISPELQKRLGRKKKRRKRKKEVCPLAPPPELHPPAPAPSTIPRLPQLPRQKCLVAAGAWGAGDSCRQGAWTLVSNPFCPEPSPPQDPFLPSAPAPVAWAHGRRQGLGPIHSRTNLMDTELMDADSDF
For series [3] the following is noted: cited from earlier work.
The nature of series [4]: Cutaneous delivery and biodistribution in vitro, Franz-type diffusion cells, human skin. It is filed as in vitro ADME. Here is the method: Human skin samples were obtained shortly after surgery from the Department of Plastic, Aesthetic and Reconstructive Surgery, Geneva University Hospital (Geneva, Switzerland), fatty tissue was removed and the skin was stored at −20° C. The donation was approved by the Central Committee for Ethics in Research (CER: 08-150 (NAC08-051); Geneva University Hospital).
The experiments were performed using standard two-compartment vertical (Franz-type) diffusion cells, (Milian SA; Meyrin, Switzerland) with a cross-sectional area of 2 cm^2. The receptor compartment consisted of 10-mL Dulbecco's phosphate-buffered saline (DPBS) pH 7.4 containing 1% BSA to maintain sink conditions. The receiver compartment was maintained between 32° C.-34° C. For infinite dose conditions, 200 μL of TAK-441 micelle formulation (3 mg/mL) was applied to the skin sample surface (i.e., 300 μg of TAK-441/cm^2 of the skin surface) and for finite dose, 20 μL of micelle formulation (3 mg/mL) was applied (30 μg of TAK-441/cm^2 of the skin surface). […]
(§1) TAK-441 had the least solubility in HPC; this characteristic would minimize the risk of interference of the suspending agent on drug delivery. […] After centrifugation at 10,000 rpm for 15 min, the permeation samples were analyzed by UHPLC-MS/MS. […]
Upon completion of the experiment, a punch was used to separate the skin sample into two parts—an inner disk with a surface area of 0.785 cm^2 and a remaining outer ring with an area of 1.215 cm^2. This outer ring was subsequently cut into small pieces, and TAK-441 deposited in the tissue was extracted by the validated extraction method (section 1.4.5.2) followed by quantification using UHPLC-MS/MS.
The 0.785-cm^2 disks were used to determine the TAK-441 biodistribution as a function of depth in the skin. […] These lamellae enabled the amounts of TAK-441 to be determined as a function of position in the skin, encompassing the stratum corneum, epidermis, and upper dermis, respectively. Each lamella and the remaining dermis were individually extracted in 250-μL methanol for 4 h and TAK-441 was quantified by UHPLC-MS/MS.

A short description of series [5]: Determination of TAK-441 content in the micelles (UHPLC-MS/MS). It is filed as physicochemical. The following applies: incorporation of TAK-441 in TPGS micelles. Here is the method: TAK-441 loaded into the micelles was quantified by UHPLC-MS/MS. To ensure complete micelle destruction and release of the incorporated drug, formulations were diluted in acetonitrile and analyzed. The drug content, drug loading, and entrapment efficiency were calculated using equations 1-3: […]

A further series concerns HH pathway. The following applies: NIH3T3 cells, Gli-reporter luciferase; read-out: IC50, inhibition of the hedgehog pathway; cited from earlier work.
The subject of another series is Gli1 expression. The following applies: oral, all doses (50 mg/day to 1600 mg/day); cited from earlier work.
Series [6] can be described thus: Cutaneous delivery and biodistribution in vitro, Franz-type diffusion cells, porcine skin. It is filed as in vitro ADME. The following applies: 12 h application.
From the text: Porcine ears were purchased from a local abattoir (CARRE; Rolle, Switzerland) shortly after sacrifice. After washing under running cold water, skin samples with a thickness of approximately 0.8 mm were carefully harvested from the outer region of the ear using a Zimmer air dermatome (Münsingen, Switzerland). Hair was removed from the skin surface using clippers. Discs corresponding to the permeation area were punched out (Berg & Schmid HK 500; Urdorf, Switzerland). Skin samples were frozen at −20° C. and stored for a maximum period of 3 months. Before the experiment, skin samples were thawed at room temperature and placed for 15 min in 0.9% saline solution for rehydration. […]
as §1
Upon completion of the experiment, a punch was used to separate the skin sample into two parts—an inner disk with a surface area of 0.785 cm^2 and a remaining outer ring with an area of 1.215 cm^2. This outer ring was subsequently cut into small pieces, and TAK-441 deposited in the tissue was extracted by the validated extraction method (section 1.4.5.2) followed by quantification using UHPLC-MS/MS. […]

For series [7] the following is noted: cited from earlier work. This is another data set of the same source.

Take `Cc1c(C(=O)Nc2ccc(N3C[C@@H](C)O[C@@H](C)C3)nc2)cccc1-c1ccc(OC(F)(F)F)cc1` [sonidegib]: the “treatment outcome in patients with resistance to vismodegib” value in series [1] is “ineffective”.

Turning to `CCc1cc2c(c(OCC(F)(F)F)c(C(=O)NC3CCN(C(=O)CO)CC3)n2C)c(=O)n1CC(=O)c1ccccc1` [TAK-441], in [2], the “activity against vismodegib-resistant Smoothened receptor D473H mutant” value is reported as “active; also recorded: effective”. Moreover, the “death assessed to be study drug-related” value in [3] (cerebral hemorrhage, patient with pancreatic cancer) was “One death”. In [3] (oral, Phase I), the “patients who experienced at least one adverse effect (AE)” value is recorded as “All patients” and the “patients who experienced serious AE” value is recorded as “Approximately 35%”. The cumulative permeation in series [4] (conclusion, corresponding to LOD) was < 0.1 pg/cm^2. The “concentrations in the permeation samples (below LOD)” value in [4] (conclusion, permeation samples, UHPLC-MS/MS) is given as < 1.29 ng/mL. Moreover, the “transdermal permeation across human skin” value in series [4] (human skin, 12 h application) is listed as “below the LOD”. In [5], the “increase of aqueous solubility” value is “approximately 40 fold”. Further, the IC50 with HH pathway was 4.4 nM. For the same compound, the “Gli1 expression in skin biopsies” value in the series with Gli1 expression was “strongly inhibited”. The “cumulative permeation (receiver compartment below LOD)” value in series [6] is reported as < 0.1 pg/cm^2. In addition, the “log P” value in series [7] was 2.61.
